Results from ChEMBL document CHEMBL1201861, “Genomics of Drug Sensitity in Cancer screening data, Wellcome Trust Sanger Institute”.

Experiments:
Assay in all cases: cells
Conditions in all cases: Homo sapiens
COR-L23 = type: functional, cell-based;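 also: cell viability assay measuring how strongly compounds suppress growth of COR-L23 cells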
Description: SANGER: Inhibition of human COR-L23 cell growth in a cell viability assay.

CP50-MEL-B = type: functional, cell-based;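 also: growth inhibition of the human cell line, measured with a cell viability read-out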
Description: SANGER: Inhibition of human CP50-MEL-B cell growth in a cell viability assay.

ChaGo-K-1 = type: functional, cell-based;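 also: growth inhibition of ChaGo-K-1 cells, read out with a cell viability assay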
Description: SANGER: Inhibition of human ChaGo-K-1 cell growth in a cell viability assay.

DMS-273 = type: functional, cell-based
Description: SANGER: Inhibition of human DMS-273 cell growth in a cell viability assay.

G-401 = type: functional, cell-based
Description: SANGER: Inhibition of human G-401 cell growth in a cell viability assay.

H4 = type: functional, cell-based
Description: SANGER: Inhibition of human H4 cell growth in a cell viability assay.

HCC1569 = type: functional, cell-based;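 also: growth inhibition of human HCC1569 cells, read out with a cell viability assay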
Description: SANGER: Inhibition of human HCC1569 cell growth in a cell viability assay.

HCC1806 = type: functional, cell-based;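 also: growth inhibition of the cancer cell line, determined with a cell viability assay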
Description: SANGER: Inhibition of human HCC1806 cell growth in a cell viability assay.

HCT-15 = type: functional, cell-based;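 also: cell viability readout, IC50 reflecting suppression of HCT-15 cell growth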
Description: SANGER: Inhibition of human HCT-15 cell growth in a cell viability assay.

HEC-1 = type: functional, cell-based;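 also: growth inhibition of the cell line, read out with a cell viability assay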
Description: SANGER: Inhibition of human HEC-1 cell growth in a cell viability assay.

HSC-3 = type: functional, cell-based
Description: SANGER: Inhibition of human HSC-3 cell growth in a cell viability assay.

KYSE-270 = type: functional, cell-based;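 also: cell growth inhibition measured with a viability assay in the human KYSE-270 line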
Description: SANGER: Inhibition of human KYSE-270 cell growth in a cell viability assay.

KYSE-520 cell line = type: functional, cell-based;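 also: growth inhibition of human KYSE-520 cells, read out with a viability assay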
Description: SANGER: Inhibition of human KYSE-520 cell growth in a cell viability assay.

MDA-MB-175-VII = type: functional, cell-based
MDA-MB-453 = type: functional, cell-based
Description: SANGER: Inhibition of human MDA-MB-453 cell growth in a cell viability assay.

MKN-7 = type: functional, cell-based;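 also: growth inhibition of MKN-7 cells, read out with a cell viability assay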
Description: SANGER: Inhibition of human MKN7 cell growth in a cell viability assay.

NB12 = type: functional, cell-based;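 also: growth inhibition of human NB12 cells, read out by a cell viability assay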
Description: SANGER: Inhibition of human NB12 cell growth in a cell viability assay.

NCI-H1573 = type: functional, cell-based;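 also: growth inhibition of NCI-H1573 cells, read out with a cell viability assay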
Description: SANGER: Inhibition of human NCI-H1573 cell growth in a cell viability assay.

NCI-H1623 = type: functional, cell-based;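 also: cell viability assay used as the read-out for growth inhibition of NCI-H1623 cells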
Description: SANGER: Inhibition of human NCI-H1623 cell growth in a cell viability assay.

NCI-H2030 = type: functional, cell-based;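 also: growth inhibition of human NCI-H2030 cells, read out by a cell viability assay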
Description: SANGER: Inhibition of human NCI-H2030 cell growth in a cell viability assay.

NCI-H520 = type: functional, cell-based;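 also: growth inhibition of NCI-H520 cells, measured by a cell viability assay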
Description: SANGER: Inhibition of human NCI-H520 cell growth in a cell viability assay.

NCI-H650 = type: functional, cell-based;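 also: growth inhibition of NCI-H650 cells, read out by a viability assay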
Description: SANGER: Inhibition of human NCI-H650 cell growth in a cell viability assay.

OAW-42 = type: functional, cell-based;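 also: growth inhibition of OAW-42 cells, read out with a cell viability assay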
Description: SANGER: Inhibition of human OAW-42 cell growth in a cell viability assay.

PFSK-1 = type: functional, cell-based;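 also: cell viability assay measuring how strongly compounds suppress growth of human PFSK-1 cells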
Description: SANGER: Inhibition of human PFSK-1 cell growth in a cell viability assay.

RERF-LC-MS = type: functional, cell-based;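 also: growth inhibition of human RERF-LC-MS cells, read out by a cell viability assay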
Description: SANGER: Inhibition of human RERF-LC-MS cell growth in a cell viability assay.

S-117 = type: functional, cell-based
Description: SANGER: Inhibition of human S-117 cell growth in a cell viability assay.

SBC-5 = type: functional, cell-based;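 also: cell viability assay read-out, IC50 is the concentration that inhibits growth of the cells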
Description: SANGER: Inhibition of human SBC-5 cell growth in a cell viability assay.

SCC-25 = type: functional, cell-based;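 also: growth inhibition of SCC-25 cells, measured with a cell viability assay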
Description: SANGER: Inhibition of human SCC-25 cell growth in a cell viability assay.

SK-HEP1 = type: functional, cell-based, SK-HEP-1;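 also: cell viability readout used to quantify reduction in proliferation of human SK-HEP-1 cells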
Description: SANGER: Inhibition of human SK-HEP-1 cell growth in a cell viability assay.

SK-MEL3 = type: functional, cell-based, SK-MEL-3;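 also: growth inhibition of human SK-MEL-3 cells, read out with a cell viability assay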
Description: SANGER: Inhibition of human SK-MEL-3 cell growth in a cell viability assay.

SW1088 = type: functional, cell-based;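 also: growth inhibition of human SW1088 cells, read out by a cell viability assay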
Description: SANGER: Inhibition of human SW1088 cell growth in a cell viability assay.

SW1710 = type: functional, cell-based;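 also: growth inhibition of SW1710 cells, determined with a cell viability assay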
Description: SANGER: Inhibition of human SW1710 cell growth in a cell viability assay.

SW1990 = type: functional, cell-based;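 also: cell growth inhibition determined with a viability assay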
Description: SANGER: Inhibition of human SW1990 cell growth in a cell viability assay.

647-V = type: functional, cell-based;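 also: growth inhibition of 647-V cells, read out with a cell viability assay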
Description: SANGER: Inhibition of human 647-V cell growth in a cell viability assay.

8305C = type: functional, cell-based
Description: SANGER: Inhibition of human 8305C cell growth in a cell viability assay.

A2058 = type: functional, cell-based;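 also: reduction of A2058 cell growth, read out with a viability assay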
Description: SANGER: Inhibition of human A2058 cell growth in a cell viability assay.

A253 cell line = type: functional, cell-based;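 also: growth inhibition of A253 cells, read out with a cell viability assay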
Description: SANGER: Inhibition of human A253 cell growth in a cell viability assay.

BHT-101 = type: functional, cell-based
Description: SANGER: Inhibition of human BHT-101 cell growth in a cell viability assay.

C32 = type: functional, cell-based;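 also: cell viability assay, with IC50 reflecting inhibition of C32 cell growth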
Description: SANGER: Inhibition of human C32 cell growth in a cell viability assay.

U2OS = type: functional, cell-based, U-2-OS;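 also: growth inhibition of human U-2-OS cells, determined with a cell viability assay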
Description: SANGER: Inhibition of human U-2-OS cell growth in a cell viability assay.

UMUC3 = type: functional, cell-based;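 also: growth inhibition of human UM-UC-3 cells, read out with a cell viability assay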
Description: SANGER: Inhibition of human UM-UC-3 cell growth in a cell viability assay.

UMC-11 = type: functional, cell-based;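 also: growth inhibition of UMC-11 cells, read out with a cell viability assay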
Description: SANGER: Inhibition of human UMC-11 cell growth in a cell viability assay.

YAPC = type: functional, cell-based;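 also: growth inhibition of YAPC cells, measured with a cell viability assay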
Description: SANGER: Inhibition of human YAPC cell growth in a cell viability assay.

CHP-212 = type: functional, cell-based
Description: SANGER: Inhibition of human CHP-212 cell growth in a cell viability assay.

HSC-4 = type: functional, cell-based;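 also: growth inhibition of human HSC-4 cells, read out with a cell viability assay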
Description: SANGER: Inhibition of human HSC-4 cell growth in a cell viability assay.

O=c1cc(N2CCOCC2)oc2c(-c3cccc4c3sc3ccccc34)cccc12
IC50 (COR-L23): > 2 µM
IC50 (CP50-MEL-B): > 2 µM
IC50 (ChaGo-K-1): > 2 µM
IC50 (DMS-273): > 2 µM
IC50 (G-401): > 2 µM
IC50 (H4): > 2 µM
IC50 (HCC1569): > 2 µM
IC50 (HCC1806): > 2 µM
IC50 (HCT-15): > 2 µM
IC50 (HEC-1): > 2 µM
IC50 (HSC-3): > 2 µM
IC50 (KYSE-270): > 2 µM
IC50 (KYSE-520 cell line): > 2 µM
IC50 (MDA-MB-175-VII): > 2 µM
IC50 (MDA-MB-453): > 2 µM
IC50 (MKN-7): > 2 µM
IC50 (NB12): > 2 µM
IC50 (NCI-H1573): > 2 µM
IC50 (NCI-H1623): > 2 µM
IC50 (NCI-H2030): > 2 µM
IC50 (NCI-H520): > 2 µM
IC50 (NCI-H650): > 2 µM
IC50 (OAW-42): > 2 µM
IC50 (PFSK-1): > 2 µM
IC50 (RERF-LC-MS): > 2 µM
IC50 (S-117): > 2 µM
IC50 (SBC-5): > 2 µM
IC50 (SCC-25): > 2 µM
IC50 (SK-HEP1): > 2 µM
IC50 (SK-MEL3): > 2 µM
IC50 (SW1088): > 2 µM
IC50 (SW1710): > 2 µM
IC50 (SW1990): > 2 µM
IC50 (647-V): > 2 µM
IC50 (8305C): > 2 µM
IC50 (A2058): > 2 µM
IC50 (A253 cell line): > 2 µM
IC50 (BHT-101): > 2 µM
IC50 (C32): > 2 µM
IC50 (U2OS): > 2 µM
IC50 (UMUC3): > 2 µM
IC50 (UMC-11): > 2 µM
IC50 (YAPC): > 2 µM
IC50 (CHP-212): > 2 µM

NC(=O)c1ncn([C@@H]2O[C@H](COP(=O)(O)O)[C@@H](O)[C@H]2O)c1N
IC50 (COR-L23): 728 µM
IC50 (CP50-MEL-B): > 2000 µM
IC50 (ChaGo-K-1): 1380 µM
IC50 (DMS-273): > 2000 µM
IC50 (G-401): > 2000 µM
IC50 (H4): > 2000 µM
IC50 (HCC1569): 994 µM
IC50 (HCC1806): 361 µM
IC50 (HCT-15): 1890 µM
IC50 (HEC-1): > 2000 µM
IC50 (HSC-3): 259 µM
IC50 (HSC-4): 874 µM
IC50 (KYSE-270): > 2000 µM
IC50 (KYSE-520 cell line): 382 µM
IC50 (MDA-MB-175-VII): > 2000 µM
IC50 (MDA-MB-453): > 2000 µM
IC50 (MKN-7): > 2000 µM
IC50 (NB12): > 2000 µM
IC50 (NCI-H1573): 353 µM
IC50 (NCI-H1623): > 2000 µM
IC50 (NCI-H2030): 1510 µM
IC50 (NCI-H520): 744 µM
IC50 (NCI-H650): > 2000 µM
IC50 (OAW-42): > 2000 µM
IC50 (PFSK-1): > 2000 µM
IC50 (S-117): > 2000 µM
IC50 (SBC-5): 1480 µM
IC50 (SCC-25): 1230 µM
IC50 (SK-HEP1): 920 µM
IC50 (SW1088): > 2000 µM
IC50 (SW1710): > 2000 µM
IC50 (SW1990): 1120 µM
IC50 (647-V): > 2000 µM
IC50 (8305C): > 2000 µM
IC50 (A2058): > 2000 µM
IC50 (BHT-101): > 2000 µM
IC50 (U2OS): > 2000 µM
IC50 (UMUC3): 1750 µM
IC50 (UMC-11): > 2000 µM
IC50 (YAPC): > 2000 µM

CC[C@@]1(O)C(=O)OCc2c1cc1n(c2=O)Cc2cc3ccccc3nc2-1 [CAMPTOTHECIN]
IC50 (COR-L23): 0.00685 µM
IC50 (CP50-MEL-B): 0.0721 µM
IC50 (DMS-273): 0.00607 µM
IC50 (G-401): 0.0192 µM
IC50 (H4): 0.000615 µM
IC50 (HCC1806): 0.00314 µM
IC50 (HCT-15): > 0.1 µM
IC50 (HEC-1): 0.0181 µM
IC50 (HSC-3): 0.00302 µM
IC50 (HSC-4): 0.000182 µM
IC50 (KYSE-270): 0.00522 µM
IC50 (KYSE-520 cell line): 0.0826 µM
IC50 (MDA-MB-175-VII): 0.083 µM
IC50 (MDA-MB-453): 0.00697 µM
IC50 (NB12): 0.044 µM
IC50 (NCI-H1623): 0.000748 µM
IC50 (NCI-H2030): 0.0485 µM
IC50 (NCI-H650): 0.055 µM
IC50 (OAW-42): 0.00899 µM
IC50 (PFSK-1): 0.026 µM
IC50 (RERF-LC-MS): 0.0229 µM
IC50 (S-117): 0.0781 µM
IC50 (SBC-5): 0.0321 µM
IC50 (SCC-25): 0.0567 µM
IC50 (SK-HEP1): 0.00725 µM
IC50 (SW1088): 0.0278 µM
IC50 (SW1710): 0.0336 µM
IC50 (SW1990): 0.0379 µM
IC50 (647-V): 0.000896 µM
IC50 (8305C): 0.094 µM
IC50 (A2058): 0.0036 µM
IC50 (BHT-101): 0.00182 µM
IC50 (C32): 0.0134 µM
IC50 (U2OS): 0.0135 µM
IC50 (UMUC3): 0.00309 µM
IC50 (UMC-11): > 0.1 µM
IC50 (YAPC): 0.0296 µM
IC50 (CHP-212): 0.00103 µM
